Measurements reported in patent publication US10100056B2, “SHIP1 modulators and methods related thereto” (Aquinox Pharmaceuticals (Canada) Inc., priority 2013, dated 2018).

Key:
His-hSHIP1 enzyme = target: T1, His-hSHIP1 enzyme (Homo sapiens, UniProt Q92835); assay: His-hSHIP1 activity (phosphatase assay, IP4 substrate, Biomol Green); assay type: biochemical; design: key to Scoring, Approach 2 (Initial velocity Ratio): +++: higher than reference or reference - 15%; ++: reference - 16% to reference - 30%; +: reference - 31% or lower; −: inhibitor; details: second approach: ratio of initial velocities IP4 25/250 μM compared with reference compound; values without asterisk
T1 construct: His
T1 sequence (Q92835 1-1189): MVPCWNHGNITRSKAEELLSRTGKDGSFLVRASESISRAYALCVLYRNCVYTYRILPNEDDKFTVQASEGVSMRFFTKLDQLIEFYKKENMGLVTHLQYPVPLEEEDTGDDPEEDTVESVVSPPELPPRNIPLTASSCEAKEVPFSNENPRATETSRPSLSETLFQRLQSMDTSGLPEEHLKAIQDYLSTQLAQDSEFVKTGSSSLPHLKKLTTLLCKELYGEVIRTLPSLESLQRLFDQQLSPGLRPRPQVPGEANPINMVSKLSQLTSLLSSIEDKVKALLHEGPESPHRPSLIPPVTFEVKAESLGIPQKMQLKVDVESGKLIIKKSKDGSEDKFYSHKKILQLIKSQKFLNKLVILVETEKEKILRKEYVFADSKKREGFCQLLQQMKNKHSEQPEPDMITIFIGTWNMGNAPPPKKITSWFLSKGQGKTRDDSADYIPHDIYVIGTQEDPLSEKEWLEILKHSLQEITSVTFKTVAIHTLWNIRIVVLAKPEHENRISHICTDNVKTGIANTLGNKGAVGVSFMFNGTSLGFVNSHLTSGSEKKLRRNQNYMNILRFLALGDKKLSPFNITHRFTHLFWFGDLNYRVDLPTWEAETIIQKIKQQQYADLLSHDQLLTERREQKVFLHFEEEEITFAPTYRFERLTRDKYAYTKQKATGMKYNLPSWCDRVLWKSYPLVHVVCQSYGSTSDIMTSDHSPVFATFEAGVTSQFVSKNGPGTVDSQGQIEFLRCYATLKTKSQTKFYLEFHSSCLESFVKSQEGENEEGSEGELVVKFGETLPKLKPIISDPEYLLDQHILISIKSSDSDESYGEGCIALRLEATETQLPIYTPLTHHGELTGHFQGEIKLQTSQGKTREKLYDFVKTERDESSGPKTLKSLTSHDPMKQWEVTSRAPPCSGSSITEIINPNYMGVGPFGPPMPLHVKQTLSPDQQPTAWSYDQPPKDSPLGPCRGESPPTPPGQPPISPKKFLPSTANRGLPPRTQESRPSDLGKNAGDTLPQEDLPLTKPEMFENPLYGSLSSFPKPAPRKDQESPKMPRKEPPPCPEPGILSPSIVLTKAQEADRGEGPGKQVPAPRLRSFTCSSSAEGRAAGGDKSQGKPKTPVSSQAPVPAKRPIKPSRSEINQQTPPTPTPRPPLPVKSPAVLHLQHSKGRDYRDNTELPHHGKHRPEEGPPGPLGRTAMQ
Description: Test compounds are dissolved in 95% ethanol to form stock solutions. Before screening, the stock solutions are diluted with Phosphatase Assay Buffer (20 mM Tris-HCL, 10 mM MgCl2 pH 7.5, 0.02% Tween 20) to form working assay solutions that contain 10% ethanol. The assay is carried out on 96-well microtiter plates using a modified procedure of that reported by Ong et al., Blood 110, 1942-1949, 2007 and Yang et al., Org Lett 7, 1073-1076, 2005, both of which references are incorporated herein by reference in their entirety.
Data were generated by one of two variant methods. Test compounds are screened by one of two approaches described as follows. In the first approach, each reaction contains 5 μL of His-hSHIP1 enzyme (5-20 ng), 10 μL of the substrate, 1,3,4,5-inositol tetrakisphosphate (IP4; 50 μM final), 5 μL of Phosphatase Assay Buffer, and 5 µL of test compound at various concentrations in 10% ethanol (0-300 μM final). Control blanks are also prepared by replacing His-hSHIP1 enzyme, IP4, or test compounds with Phosphatase Assay Buffer. After adding the reaction components in a 96-well microtiter plate on ice, the reaction is mixed by briefly shaking the plate vigorously. The reaction is then incubated at 37° C. for 15 min with gentle shaking followed by addition of 100 μL of Biomol Green Reagent (BIOMOL, PA, USA) to terminate the reaction. The free phosphate released from IP4 by His-hSHIP1 binds to the Biomol Green Reagent, which turns the dye to green color. After incubating the mixture for 20 min at room temperature for color development, the absorbance is read with SpectraMax Plus 96-well plate reader (Molecular Devices, Sunnyvale, Calif., USA) at a wavelength of 650 nm.
In the second approach, a master mix is prepared that contains 50 μL of His-hSHIP1 enzyme (0.4-1.6 ng/μL final), 25 μL of the substrate, IP4 (25 or 250 μM final), and 50 μL of test compound in 3.3% ethanol (100 μL final). Control blanks are also prepared by replacing His-hSHIP1 enzyme, IP4, or test compounds with Phosphate Assay Buffer. […] Each reaction component is preincubated at 37° C. for 30 min before adding to a 96-well microtiter plate. The master mix is then incubated at 37° C. At time 0, 20, and 30 min, 25 μL of the master mix is removed and transferred to a new 96-well microtiter plate, to which 100 μL of Biomol Green Reagent is added to stop the reaction. After incubating the mixture for 20 min at room temperature for color development, the absorbance is read with SpectraMax Plus 96-well plate reader at a wavelength of 650 nm. Phosphate released is plotted against time to calculate the initial velocities (i.e., slope of the graph) at each IP4 concentration. The initial velocities are baseline corrected and the ratio of initial velocities (IP425/IP4250) is calculated and used to rate the test compounds.

[1] = tested on: Akt phosphorylation in Molt-4 (PTEN-/SHIP1+) cells; assay: Akt phosphorylation in lymphocytes (Western blot, IGF-1 stimulated); assay type: cell-based; design: key: +: inhibits Akt phosphorylation at 30 μM; −: no effect on Akt phosphorylation at 30 μM; details: 30 μM; Molt-4 (SHIP1+) cells, IGF-1 100 ng/mL
Description: Molt-4 (PTEN-/SHIP1+) cells are starved in serum free RPMI for overnight. In a 15 mL conical tube, 2-3 million serum starved cells (1 million cells per mL) are treated with various concentrations of test compound ([…]) for 30 min at 37° C. followed by stimulation with 100 ng/mL of IGF-1 for 1 hour at 37° C. After stimulation, cells are washed once with ice-cold DPBS and lysed with Lysis Buffer (20 mM Tris-HCl, pH 7.5, 140 mM NaCl, 1% NP-40, Complete Mini Protease Inhibitor Cocktail, 10 mM NaF, 1 mM Na3VO4, 1 mM β-glycerolphosphate) on ice for 30 min with vortexing every 10 min. Samples are then centrifuged at 13,000 rpm for 20 min, and supernatants are collected as total cell lysate samples. Protein concentration is determined using bicinchonic acid assay, and about 15 μg of total protein from each sample is loaded and separated on a 4-12% Tris-Glycine gel. After SDS-PAGE, proteins are transferred from the gel to a nitrocellulose membrane. The membrane is blocked in 5% BSA in PBS containing 0.1% Tween-20 (PBS-T) for 1 hour at room temperature before probing with primary antibodies for overnight at 4° C. The following antibodies are used: mouse anti-SHIP1 (1:500 dilution; Santa Cruz, Calif., USA), rabbit anti-phospho-Akt (Ser473) (1:1000 dilution; Cell Signaling Technologies, MA, USA), rabbit anti-Akt (1:1000; Cell Signaling Technologies, MA, USA), and rabbit anti-actin (1:2000; Cell Signaling Technologies, MA, USA). The membrane is then incubated with goat anti-rabbit or anti-mouse secondary antibodies (1:3000) for 1 hour at room temperature. Target proteins on the membrane are detected with ECL solution and exposed on a film.

Scoring, Approach 2 (Initial velocity Ratio) (His-hSHIP1 enzyme)	SMILES	Molt-4 (SHIP+): inhibition of Akt phosphorylation [1]
++	CC1(C)CCC2=C1CC[C@H]([C@@]1(C)CC[C@H](O)C[C@@H]1CO)[C@H]2CNC(=N)N.Cl [Cpd. No. 1, 1-(((4R,5S)-5-((1R,2S,4S)-4-hydroxy-2-(hydroxymethyl)-1-methylcyclohexyl)-1,1-dimethyl-2,3,4,5,6,7-hexahydro-1H-inden-4-yl)methyl)guanidine hydrochloride]	+
+	C=C1CC[C@H]2[C@H](CNCc3ccc(OC)cc3)[C@@H]([C@@]3(C)CC[C@H](O)C[C@@H]3CO)CC[C@]12C [Cpd. No. 18, (1S,3S,4R)-3-(hydroxymethyl)-4-((3aS,4R,5S,7aS)-4-((4-methoxybenzylamino)methyl)-7a-methyl-1-methyleneoctahydro-1H-inden-5-yl)-4-methylcyclohexanol]	+
+	C=C1CC[C@H]2[C@H](Cn3cncn3)[C@@H]([C@@]3(C)CC[C@H](O)C[C@@H]3CO)CC[C@]12C [Cpd. No. 27, (1S,3S,4R)-4-((3aS,4R,5S,7aS)-4-((1H-1,2,4-triazol-1-yl)methyl)-7a-methyl-1-methyleneoctahydro-1H-inden-5-yl)-3-(hydroxymethyl)-4-methylcyclohexanol]	−
++	C=C1CC[C@H]2[C@H](O)[C@@H]([C@@]3(C)CC[C@H](O)C[C@@H]3CCN3CCOCC3)CC[C@]12C [Cpd. No. 46, (3aR,4R,5R,7aS)-5-((1S,2S,4S)-4-hydroxy-1-methyl-2-(2-morpholinoethyl)cyclohexyl)-7a-methyl-1-methyleneoctahydro-1H-inden-4-ol]	+
